{"source": "patent US4284621A", "about": "“Agents for protection against light” (Bayer Aktiengesellschaft, priority 1978, dated 1981)", "key": {"[1]": {"test": "14 day LD 50 (tolerance)", "format": "in vivo"}, "[2]": {"test": "UV absorption spectral data (wavelength λmax, molar extinction ε, specific extinction E1^1)", "format": "physicochemical", "conditions": "Table II; for Molar extinction ε: in M-1cm-1"}, "[3]": {"test": "Solubilities at room temperature (20-25° C.) in groundnut oil and groundnut oil/liquid paraffin 1:9", "format": "physicochemical"}}}
{"molecule": "4-methoxy-benzylidene-cyanoacetic acid isononyl ester [iso-Nonyl]", "values": [{"measurement": "14 day LD 50", "setting": "[1]", "result": 20.76, "unit": "mL/kg"}, {"measurement": "Specific extinction E1^1", "setting": "[2]", "result": 860}, {"measurement": "Wavelength λmax (nm)", "setting": "[2]", "result": 341, "unit": "nm"}, {"measurement": "Molar extinction ε", "setting": "[2]", "result": "28,400"}]}
{"molecule": "CCCCCCOC(=O)C(C#N)=Cc1ccc(OC)cc1", "note": "[n-Hexyl, 4-methoxy-benzylidene-cyanoacetic acid n-hexyl ester]", "values": [{"measurement": "Solubility at room temperature in groundnut oil/liquid paraffin 1:9 (%)", "setting": "[3]", "result": 90, "unit": "%"}, {"measurement": "14 day LD 50", "setting": "[1]", "result": 5.71, "unit": "mL/kg"}, {"measurement": "Specific extinction E1^1", "setting": "[2]", "result": 990}, {"measurement": "Wavelength λmax (nm)", "setting": "[2]", "result": 342, "unit": "nm"}, {"measurement": "Molar extinction ε", "setting": "[2]", "result": "28,500"}]}
{"molecule": "CCCCCOC(=O)C(C#N)=Cc1ccc(OC)cc1", "note": "[n-Pentyl]", "values": [{"measurement": "Solubility at room temperature in groundnut oil (%)", "setting": "[3]; groundnut oil", "result": "6-7%"}, {"measurement": "Solubility at room temperature in groundnut oil/liquid paraffin 1:9 (%)", "setting": "[3]", "result": 1.4, "unit": "%"}, {"measurement": "Specific extinction E1^1", "setting": "[2]", "result": "1,050"}, {"measurement": "Wavelength λmax (nm)", "setting": "[2]", "result": 341, "unit": "nm"}, {"measurement": "Molar extinction ε", "setting": "[2]", "result": "28,600"}]}
